Laboratory results: patent US20160287558A1, “ORAL PHARMACEUTICAL FORM FOR PREVENTING VASCULAR DISEASES, TABLET AS PHARMACEUTICAL FORM AND GELATIN CAPSULE AS PHARMACEUTICAL FORM” (HYPERMARCAS S.A., priority 2013, published 2016)

Key:
[1] = ALLHAT study; cited from earlier work
carbonic anhydrase = details: cited from earlier work
[2] = Text: The dissolution curves represent the expression of the release mechanism of active principles within the pharmaceutical form. Thus, it is possible to modulate the release to protect the active pharmaceutical principle, besides of improving the solubilization conditions. Excipients are used to optimize the behavior of the active pharmaceutical principle.

| Compound | efficacy and prevention of cardiovascular complications compared with other drugs [1] | inhibition of carbonic anhydrase (carbonic anhydrase) | solubility in water [2] |
| --- | --- | --- | --- |
| NS(=O)(=O)c1cc2c(cc1Cl)NCNS2(=O)=O [hydrochlorothiazide] | as effective as other drugs and further prevents more cardiovascular complications than other drugs | very weak inhibitors | – |
| CCCCc1nc(Cl)c(CO)n1Cc1ccc(-c2ccccc2-c2nn[nH]n2)cc1 [losartan] | – | – | freely soluble |
